Earlier results on one substance are cited in US5883119A, “Triterpene derivatives with immunosuppressant activity” (Merck & Co., Inc., priority 1996, dated 1999).

This data set has as its system Kv 1.3 channels (CHO cells transfected with Kv 1.3 channels). To be noted: stated in the method as property of the control blocker.

By IC50 is commonly meant the concentration that inhibits the measured activity by half. As for “margatoxin (TIINVKCTSPKQCLPPCKAQFGQSAGAKCMNGKCKCYPH; UniProt P40755 1-39, looked up)”, the IC50 was 0.1 nM.
